From patent US20120316138A1, “PPAR-SPARING THIAZOLIDINEDIONES AND COMBINATIONS FOR THE TREATMENT OF OBESITY AND OTHER METABOLIC DISEASES” (METABOLIC SOLUTIONS DEVELOPMENT COMPANY, LLC, priority 2009, published 2012)
Each block holds one compound with its values, some of them ahead of it.

Columns and labels:
diabetic KKAy mouse = assay: Blood glucose lowering in the diabetic KKAy mouse; assay type: in vivo; conditions: diabetic KKAy mice, gavage once daily, glucose measured after 4 daily doses
Procedure: In these experiments, free base or sodium salt was given to diabetic KKAy mice (N=6) and blood glucose was measured after 4 days of daily treatment at the doses indicated. KKAy mice, 8-12 weeks of age, were given the doses of the compounds according to the dosages on the X axis of FIG. 10. The compounds were given by gavage once daily at […]. On the fifth day (after 4 daily doses at the levels show) a blood sample was taken to measure plasma glucose.

[1] = Bioavailability of sodium salt of Compound A, oral capsule versus iv injection; assay type: in vivo; conditions: male cynomolgus monkeys, oral gavage, 90 mg free base equivalents in capsules, absolute availability versus iv
Procedure: The monkeys fasted overnight and were dosed by oral gavage washed down with 10 ml tap water. Blood samples were taken at 0.25, 0.5, 1, 2, 3, 4, 6, 9, 12, 24, and 48 hours after a single dosage was administered and assayed for drug related materials with a LCMS assay using an internal standard. 90 mg of drug was put in 00 gelatin capsules containing 90 mg of free base equivalents. This was compared to an iv injection of 2 ml/kg and 45 mg of free base solution in 50% hydroxypropyl b-cyclodextran. The absolute availability versus an iv injection was determined for both parent compound and major metabolite.

[2] = AUC of compound related materials after oral dosing of Compound G forms; assay type: in vivo; conditions: cynomolgus monkeys, 250 mg free acid equivalents, formulated tablets
Procedure: Referring to FIG. 9, the area under the curve (AUC) of compound related materials was compared following dosing of 250 mg of Compound G as powder in capsules of free acid (PIC), formulated tablets of micronized free acid, or formulated tablets of the Na or K salt of […] given at the same free acid equivalents. (N=4 cynomolgus monkeys). The formulated, compressed tablet also contained in each case approximately 40.5% lactose, 16.8% microcrystalline cellulose, 1.9% Croscarmellose sodium, 0.5% colloidal silicon dioxide, and 0.9% magnesium stearate.

[3] = tested on: brown adipose tissue precursor cells (UCP1); assay: BAT differentiation: UCP1 protein by Western blot in BAT precursor cells; assay type: cell-based, mice; conditions: 7 days
Procedure: Precursors of BAT are isolated from the interscapular adipose pad of either normal or diabetic mice and cultured in vitro as described below based on the modifications recited in Petrovic N, Shabalina I G, Timmons J A, Cannon B, Nedergaard J. Am. J. Physiol. Endocrinol. Metab. 295:E287-E296, 2008, hereby incorporated by reference.
The brown fat pads are pooled and minced, digested for 45 minutes in isolation buffer containing 0.15% (wt/vol) collagenase. The cell suspension is filtered through a 100 un nylon filter and centrifuged at 200×g for 5 minutes. The pellet containing the preadipocytes is resuspended in 1.2 ml/animal of DMEM containing 10% FBS, 10 mM HEPES, 25 μg/ml sodium ascorbate, 100 U/ml penicillin, and 100 μg/ml streptomycin. The resuspended preadipocytes are distributed into 6 well plates and grown at 37° C. in an atmosphere of 10% CO2 in air with 80% humidity. The medium is changed on the first day and then every second day until confluent.
Cells are then treated with the compounds, compound salts, or co-crystals thereof being assayed for BAT differentiation. This treatment can occur simultaneously with, after, or before strategies to increase intracellular cyclic nucleotides. The development of the BAT phenotype is assessed by direct measure of the uncoupling protein 1 (UCP1), which is emblematic of brown adipose cells.
Following treatment of the cells, the growth medium is aspirated, rinsed with PBS, and lysed with KHM buffer containing 1% Igepal CA-630, and a protease inhibitor cocktail. The lysate is centrifuged at 8,000×g for 5 minutes (4° C.), the supernatant containing the cell lysate is collected and total protein analyzed using the BCA method. 20 μg/lane of cell lysate is run on 10-20% Tris glycine gels under reducing conditions and the proteins transferred to PVDF membranes. Western blotting is conducted using UCP1 polyclonal 1° antibody, an HRP conjugated 2° antibody, and imaged using enhanced chemiluminescence reagents and imaging film. Densitometry is conducted on the scanned films using ImageJ software and analyzed using GraphPad Prism software.

PGC-1α = assay: Expression of PGC-1α mRNA in precursor BAT cells with norepinephrine (quantitative PCR); assay type: cell-based, mice; conditions: for PGC-1α message (mRNA): 3 μM compound for seven days, then 1 μM norepinephrine for 2 hours
Procedure: Another example of the ability of augmented signaling between cyclic nucleotides and compounds of Formula I is shown by the effect on expression of PGC-1α, a known regulator of mitochondrial biogenesis. Increased numbers of mitochondria are predictive of utility for the reduction of body weight.
Precursor BAT cells were isolated as described above and treated with or without 3 μM compounds: 1.] Compound A: 5-(4-(2-(5-ethylpyridin-2-yl)-2-oxoethoxy)benzyl)-1,3-thiazolidine-2,4-dione; 2.] Compound F: 5-((4-(2R)-2-(5-ethylpyridin-2-yl)-2-hydroxyethoxyl)benzyl)-1,3-thiazolidine-2,4-dione; or 3.] Compound G: 5-(4-(2-(3-methoxyphenyl)-2-oxoethoxy)benzyl)-1,3-thiazolidine-2,4-dione for seven days followed by treatment with 1 μM norepinephrine for 2 hours. Total RNA was isolated from the cells and the RNA message (mRNA) for PGC-1α was measured by quantitative polymerase chain reactions.

- bioavailability of major metabolite versus free base counterpart [1]: significantly higher bioavailability
- bioavailability of parent compound versus free base counterpart [1]: significantly higher bioavailability
Compound: CCc1ccc(C(=O)COc2ccc(CC3SC(=O)[N-]C3=O)cc2)nc1.[Na+] (centres unmarked) [sodium salt of Compound A, Sodium 5-{4-[2-(5-ethylpyridin-2-yl)-2-oxoethoxy]benztl}-2,4-dioxo-1,3-thiazolidin-3-ide]
- lowering blood glucose (diabetic KKAy mouse): excellent dose response

- bioavailability (AUC of compound related materials) versus free acid counterparts [2]: significantly higher bioavailability
Compound: COc1cccc(C(=O)COc2ccc(CC3SC(=O)[N-]C3=O)cc2)c1.[K+] (centres unmarked) [potassium salt of Compound G, Potassium 5-{4-[2-(3-methoxyphenyl)-2-oxoethoxy]benzyl}-2,4-dioxo-1,3-thiazolidin-3-ide]

Compound: CCc1ccc([C@H](F)COc2ccc(CC3SC(=O)NC3=O)cc2)nc1 (stereo partly drawn) [Compound D, 5-(4-((S)-2-(5-ethylpyridin-2-yl)-2-fluoroethoxy)benzyl)thiazolidine-2,4-dione]
- amount of UCP1 (Western blot) ([3]; 3 to 10 μM): dose-dependent increase

Compound: CCc1ccc([C@@H](F)COc2ccc(CC3SC(=O)NC3=O)cc2)nc1 (stereo partly drawn) [Compound E, 5-(4-((R)-2-(5-ethylpyridin-2-yl)-2-fluoroethoxy)benzyl)thiazolidine-2,4-dione]
- amount of UCP1 (Western blot) ([3]; 3 to 10 μM): dose-dependent increase

Compound: COc1cccc([C@@H](F)COc2ccc(CC3SC(=O)NC3=O)cc2)c1 (stereo partly drawn) [Compound C, 5-(4-((R)-2-fluoro-2-(3-methoxyphenyl)ethoxy)benzyl)thiazolidine-2,4-dione]
- amount of UCP1 (Western blot) ([3]; 0.1 to 3 μM): dose-dependent increase

Compound: CCc1ccc([C@@H](O)COc2ccc(CC3SC(=O)NC3=O)cc2)nc1 (stereo partly drawn) [Compound F, 5-((4-(2R)-2-(5-ethylpyridin-2-yl)-2-hydroxyethoxyl)benzyl)-1,3-thiazolidine-2,4-dione]
- PGC-1α message (mRNA) (PGC-1α): an increase in PGC-1α message was observed

- bioavailability (AUC of compound related materials) versus free acid counterparts [2]: significantly higher bioavailability
Compound: COc1cccc(C(=O)COc2ccc(CC3SC(=O)[N-]C3=O)cc2)c1.[Na+] (centres unmarked) [sodium salt of Compound G, Sodium 5-{4-[2-(3-methoxyphenyl)-2-oxoethoxy]benztl}-2,4-dioxo-1,3-thiazolidin-3-ide]

Compound: NC[C@H](O)c1ccc(O)c(O)c1 [norepinephrine, reference compound]
- PGC-1α mRNA (PGC-1α; norepinephrine alone, 1 μM for 2 hours, absence of compound (control)): did not produce an increase

Compound: COc1cccc([C@H](F)COc2ccc(CC3SC(=O)NC3=O)cc2)c1 (stereo partly drawn) [Compound B, 5-(4-((S)-2-fluoro-2-(3-methoxyphenyl)ethoxy)benzyl)thiazolidine-2,4-dione]
- amount of UCP1 (Western blot) ([3]; 0.1 to 3 μM): dose-dependent increase

Compound: CCc1ccc(C(=O)COc2ccc(CC3SC(=O)NC3=O)cc2)nc1 (centres unmarked) [Compound A, 5-{4-[2-(5-ethylpyridin-2-yl)-2-oxoethoxy]benzyl}-1,3-thiazolidine-2,4-dione]
- PGC-1α message (mRNA) (PGC-1α): an increase in PGC-1α message was observed
- amount of UCP1 (Western blot) ([3]; 0.1 to 10 μM): dose-dependent increase

Compound: COc1cccc(C(=O)COc2ccc(CC3SC(=O)NC3=O)cc2)c1 (centres unmarked) [Compound G, 5-{4-[2-(3-methoxyphenyl)-2-oxoethoxy]benzyl}-1,3-thiazolidine-2,4-dione]
- PGC-1α message (mRNA) (PGC-1α): an increase in PGC-1α message was observed
